Measured values published in patent publication US9334256B2, “Agents and methods for treating ischemic and other diseases” (NoNO INC., priority 2011, dated 2016).

Columns and labels:
TRPM7 = target: T1, TRPM7 (Mus musculus, UniProt Q923J1); assay: PI uptake cell death assay in TRPM7-expressing HEK-293 cells (type of assay from Example 1); assay type: cell-based, murine; conditions: Table X
T1 construct: expressed in transfected cells; host or cells: HEK-293 tSA (HEK-293T) cells, transient transfection with Lipofectamine 2000
T1 sequence (Q923J1 whole entry): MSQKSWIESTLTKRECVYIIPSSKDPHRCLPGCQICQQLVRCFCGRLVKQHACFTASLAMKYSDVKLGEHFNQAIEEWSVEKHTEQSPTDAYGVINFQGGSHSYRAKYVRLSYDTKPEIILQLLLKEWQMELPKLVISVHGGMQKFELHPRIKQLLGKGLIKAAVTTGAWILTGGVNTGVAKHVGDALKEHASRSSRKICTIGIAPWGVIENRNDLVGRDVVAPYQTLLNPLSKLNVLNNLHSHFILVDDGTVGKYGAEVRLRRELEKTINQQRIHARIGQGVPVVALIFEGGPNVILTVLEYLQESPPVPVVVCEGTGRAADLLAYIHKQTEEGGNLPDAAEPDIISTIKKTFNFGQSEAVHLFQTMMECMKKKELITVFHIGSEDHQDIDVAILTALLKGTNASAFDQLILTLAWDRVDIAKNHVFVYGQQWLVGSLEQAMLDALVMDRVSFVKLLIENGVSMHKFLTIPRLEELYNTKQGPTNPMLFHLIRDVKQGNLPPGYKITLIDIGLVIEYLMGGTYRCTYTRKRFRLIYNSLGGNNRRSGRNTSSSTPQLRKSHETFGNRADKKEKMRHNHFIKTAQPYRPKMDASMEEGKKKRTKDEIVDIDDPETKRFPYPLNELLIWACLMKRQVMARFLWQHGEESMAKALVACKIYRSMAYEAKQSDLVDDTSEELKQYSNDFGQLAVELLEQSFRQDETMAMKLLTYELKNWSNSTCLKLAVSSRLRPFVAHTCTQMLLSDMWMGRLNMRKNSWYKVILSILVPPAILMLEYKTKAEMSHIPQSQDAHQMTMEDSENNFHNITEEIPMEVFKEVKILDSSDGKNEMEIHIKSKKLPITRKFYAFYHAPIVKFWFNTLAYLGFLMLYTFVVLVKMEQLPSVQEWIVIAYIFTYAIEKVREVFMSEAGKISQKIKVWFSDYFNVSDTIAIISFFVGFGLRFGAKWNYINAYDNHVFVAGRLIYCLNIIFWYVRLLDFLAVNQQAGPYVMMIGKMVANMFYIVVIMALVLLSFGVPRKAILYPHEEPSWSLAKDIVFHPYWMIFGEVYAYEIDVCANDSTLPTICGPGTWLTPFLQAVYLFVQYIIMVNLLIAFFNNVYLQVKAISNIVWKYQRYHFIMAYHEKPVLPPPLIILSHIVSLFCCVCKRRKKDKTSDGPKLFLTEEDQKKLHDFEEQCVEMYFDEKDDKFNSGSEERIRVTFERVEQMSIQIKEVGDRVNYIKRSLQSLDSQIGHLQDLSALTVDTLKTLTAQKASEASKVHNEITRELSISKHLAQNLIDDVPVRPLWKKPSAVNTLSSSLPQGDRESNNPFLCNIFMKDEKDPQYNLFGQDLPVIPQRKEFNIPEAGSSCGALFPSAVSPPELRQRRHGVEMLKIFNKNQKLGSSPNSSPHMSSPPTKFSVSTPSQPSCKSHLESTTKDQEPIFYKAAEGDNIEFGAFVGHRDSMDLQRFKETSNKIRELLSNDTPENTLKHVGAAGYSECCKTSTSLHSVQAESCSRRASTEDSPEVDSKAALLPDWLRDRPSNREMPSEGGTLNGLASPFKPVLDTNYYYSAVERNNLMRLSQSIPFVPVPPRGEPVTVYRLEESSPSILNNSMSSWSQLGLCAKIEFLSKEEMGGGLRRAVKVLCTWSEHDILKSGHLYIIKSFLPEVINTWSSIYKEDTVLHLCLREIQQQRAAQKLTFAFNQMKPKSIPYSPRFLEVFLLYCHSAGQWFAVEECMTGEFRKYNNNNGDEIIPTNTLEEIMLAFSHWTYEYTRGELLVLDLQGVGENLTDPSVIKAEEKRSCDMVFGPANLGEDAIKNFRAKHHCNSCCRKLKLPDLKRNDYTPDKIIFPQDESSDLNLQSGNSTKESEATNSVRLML

cancer cell lines = assay: Cell proliferation studies, cancer cell lines in general; assay type: cell-based; conditions: summary statement
Method: Cells were grown to 70% confluency, trypsinized, counted, and seeded in 96-well flat-bottom plates at a final concentration of 2.5×10^3-5.0×10^3 cells/well in growth media containing 5% FBS (Day 0). Other well sizes and cell densities were used successfully as well. Cells were allowed to incubate in growth media for 24 hours to allow for maximum adhesion. Treatment with the test agent began on Day 1 and continued for 72 hours either with or without retreatment. At the 72 hour time point, viable cell numbers are quantified by the CellTiter-Glo® cell viability assay as described above, or using standard MTT, SRB or BrDU assays. Experiments were repeated at least twice with the same concentrations to determine growth inhibitory activity. […] In an alternative format, this assay was used to screen potential TRPM7 inhibitory compounds at a fixed concentration, usually 5 or 10 uM. Alternatively, lower or higher concentrations were used. […] Thus, for the compounds in Table 1, all are potential anti-cancer agents. Some, like 399 and 509, are more general and may be effective against a wide range of cancers. Others, like 2785, are more specific and may be effective against a subset of cancers.
Data Collection—For the cell proliferation studies, data from each experiment was collected and expressed as % Cell Growth using the following calculation: % Cell Growth=(ftest/fvehicle)×100 Where ftest is the luminescent signal of the tested sample, and fvehicle is the luminescence of the vehicle in which the drug is dissolved (or appropriate measure for the other viability/proliferation measures). Dose response graphs and IC50 values were generated using standard software using the following variable slope equation: […]

In the case of `Cc1c(Cc2ccc(Cl)c(Cl)c2)c(=O)oc2cc(O)ccc12` [Compound M21], the IC50 (TRPM7) is reported as 4.97 µM and the “inhibition of proliferation of cancer cell lines” value (cancer cell lines) is reported as “effective in inhibiting proliferation of a retinoblastoma cell line”.
